# Laboratory results: US20190127366A1 (LifeSci Pharmaceuticals, Inc., priority 2015, published 2019)
# Molecular target: T1, human complement factor D (Homo sapiens, UniProt P00746)
# T1 construct: purchased R&D Systems 1824-SE
# Assay: In vitro enzyme inhibition (Z-Lys-SBzl/DTNB absorbance assay)
# Type: biochemical
# Conditions: Complement Factor D (R&D Systems), substrate Z-Lys-SBzl, A405 nm; read-out: CFD IC50
# How it was run: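 Factor D (6.25 ng/μL before addition) preincubated 5 min RT with compound (8 points from 50 μM, 6-fold, 0.5% DMSO final) in 50 mM Tris/HCl pH 7.5, 1 M NaCl, then Z-Lys-SBzl/DTNB added (200 μM each before addition). A405 read kinetically every 30 s for 60 min; IC50 from variable-slope fit, controls with and without enzyme.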
# T1 sequence (P00746 26-253): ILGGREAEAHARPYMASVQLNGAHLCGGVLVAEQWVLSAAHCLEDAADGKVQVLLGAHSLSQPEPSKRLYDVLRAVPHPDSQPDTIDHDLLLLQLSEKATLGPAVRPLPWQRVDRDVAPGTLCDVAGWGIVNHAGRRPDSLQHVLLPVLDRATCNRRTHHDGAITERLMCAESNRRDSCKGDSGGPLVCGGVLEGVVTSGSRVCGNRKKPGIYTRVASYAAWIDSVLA
row,Structure (SMILES),IC50 [µM]
1,"COC(=O)Cc1ccc2c(C(N)=O)nn(CC(=O)N3[C@@H]4CC[C@@H](C4)[C@H]3C(=O)NCc3cccc(Cl)c3F)c2c1 [Example 126, methyl 2-(3-carbamoyl-1-(2-((1R,3S,4S)-3-((3-chloro-2-fluorobenzyl)carbamoyl)-2-azabicyclo[2.2.1]heptan-2-yl)-2-oxoethyl)-1H-indazol-6-yl)acetate]",1 to 10
2,"N#Cc1ccc2c(c1)c(C(N)=O)nn2CC(=O)N1[C@H](C(=O)Nc2cccc(Cl)n2)C[C@@H]2CCC[C@@H]21 [Example 174, 1-(2-((2S,3aS,6aS)-2-((6-chloropyridin-2-yl)carbamoyl)hexahydrocyclopenta[b]pyrrol-1(2H)-yl)-2-oxoethyl)-5-cyano-1H-indazole-3-carboxamide]",0.1 to 1
3,"NC(=O)c1nn(CC(=O)N2[C@H]3CC[C@H]([C@H](O)C3)[C@@H]2C(=O)NCc2cccc(Cl)c2F)c2ccccc12 [Example 153, (1S,3R,4S,5R)-2-(2-(3-carbamoyl-1H-indazol-1-yl)acetyl)-N-(3-chloro-2-fluorobenzyl)-5-hydroxy-2-azabicyclo[2.2.2]octane-3-carboxamide]",> 10
4,"NC(=O)c1nn(CC(=O)N2[C@H](C(=O)Nc3cccc(Cl)c3F)C[C@@H]3CCC[C@@H]32)c2ccccc12 [Example 158, 1-(2-((2S,3aS,6aS)-2-((3-chloro-2-fluorophenyl)carbamoyl)hexahydrocyclopenta[b]pyrrol-1(2H)-yl)-2-oxoethyl)-1H-indazole-3-carboxamide]",0.1 to 1
5,"NC(=O)c1nn(CC(=O)N2[C@@H]3CC[C@@H](C3)[C@H]2C(=O)NCc2cc3c(Cl)c[nH]c3cc2F)c2ccccc12 [Example 198, 1-(2-((1R,3S,4S)-3-(((3-chloro-6-fluoro-1H-indol-5-yl)methyl)carbamoyl)-2-azabicyclo[2.2.1]heptan-2-yl)-2-oxoethyl)-1H-indazole-3-carboxamide]",> 10
6,"NC(=O)c1nn(CC(=O)N2CC3CC2(C(=O)Nc2cccc(Cl)n2)C3)c2ccccc12 [Example 151, 2-(2-(3-carbamoyl-1H-indazol-1-yl)acetyl)-N-(6-chloropyridin-2-yl)-2-azabicyclo[2.1.1]hexane-1-carboxamide]",1 to 10
7,"CC(O)c1nn(CC(=O)N2[C@H](C(=O)Nc3cccc(Cl)n3)C[C@@H]3CCC[C@@H]32)c2ccccc12 (stereo partly drawn) [Example 181, (2S,3aS,6aS)-N-(6-chloropyridin-2-yl)-1-(2-(3-(1-hydroxyethyl)-1H-indazol-1-yl)acetyl)octahydrocyclopenta[b]pyrrole-2-carboxamide]",1 to 10
8,"NC(=O)c1nn(CC(=O)N2[C@@H]3CC[C@@H](C3)[C@H]2C(=O)Nc2cccc(OC(F)(F)F)c2F)c2ccccc12 [Example 41, 1-(2-((1R,3S,4S)-3-((2-fluoro-3-(trifluoromethoxy)phenyl)carbamoyl)-2-azabicyclo[2.2.1]heptan-2-yl)-2-oxoethyl)-1H-indazole-3-carboxamide]",1 to 10
9,"N#Cc1cc(Cl)c(F)c(CNC(=O)[C@@H]2[C@H]3CC[C@H](C3)N2C(=O)Cn2nc(C(N)=O)c3ccccc32)c1 [Example 113, 1-(2-((1R,3S,4S)-3-((3-chloro-5-cyano-2-fluorobenzyl)carbamoyl)-2-azabicyclo[2.2.1]heptan-2-yl)-2-oxoethyl)-1H-indazole-3-carboxamide]",1 to 10
10,"NC(=O)c1nn(CC(=O)N2[C@@H]3CC[C@@H](C3)[C@H]2C(=O)Nc2cccc(C(F)(F)F)n2)c2ccccc12 [Example 8, 1-(2-oxo-2-((1R,3S,4S)-3-((6-(trifluoromethyl)pyridin-2-yl)carbamoyl)-2-azabicyclo[2.2.1]heptan-2-yl)ethyl)-1H-indazole-3-carboxamide]",1 to 10
11,"NC(=O)c1nn(CC(=O)N2[C@H](C(=O)O)C[C@H]2C(=O)NCc2cccc(Cl)c2F)c2ccccc12 (relative stereo) [Example 195, trans-1-(2-(3-carbamoyl-1H-indazol-1-yl)acetyl)-4-((3-chloro-2-fluorobenzyl)carbamoyl)azetidine-2-carboxylic acid]",1 to 10
12,"CC(=O)N1CCCN(C(=O)Cn2nc(C(N)=O)c3ccccc32)C(C(=O)NCc2cccc(Cl)c2F)C1 (stereo not drawn) [Example 34, 1-(2-(4-acetyl-2-((3-chloro-2-fluorobenzyl)carbamoyl)-1,4-diazepan-1-yl)-2-oxoethyl)-1H-indazole-3-carboxamide]",> 10
13,"NC(=O)c1nn(CC(=O)N2CCNC[C@H]2C(=O)Nc2cccc(C(F)(F)F)n2)c2ccccc12 [Example 29, (S)-1-(2-oxo-2-(2-((6-(trifluoromethyl)pyridin-2-yl)carbamoyl)piperazin-1-yl)ethyl)-1H-indazole-3-carboxamide]",> 10
14,NC(=O)c1nn(CC(=O)N2[C@@H]3CC[C@@H](C3)[C@H]2C(=O)NCc2cccc(Cl)c2F)c2ccc(CC(=O)O)cc12 [Example 131],1 to 10
15,"NC(=O)c1nn(CC(=O)N2[C@@H]3CC[C@@H](C3)[C@H]2C(=O)NC(CC(=O)O)c2cccc(Cl)c2F)c2ccccc12 (stereo partly drawn) [Example 143, 3-((1R,3S,4S)-2-(2-(3-carbamoyl-1H-indazol-1-yl)acetyl)-2-azabicyclo[2.2.1]heptane-3-carboxamido)-3-(3-chloro-2-fluorophenyl)propanoic acid]",1 to 10
16,"COC(=O)c1cc(Cl)c(F)c(CNC(=O)[C@@H]2[C@H]3CC[C@H](C3)N2C(=O)Cn2nc(C(N)=O)c3ccccc32)c1 [Example 110, methyl 3-(((1R,3S,4S)-2-(2-(3-carbamoyl-1H-indazol-1-yl)acetyl)-2-azabicyclo[2.2.1]heptane-3-carboxamido)methyl)-5-chloro-4-fluorobenzoate]",1 to 10
17,"Cc1ccc2c(c1)c(C(N)=O)nn2CC(=O)N1[C@@H]2CC[C@@H](C2)[C@H]1C(=O)Nc1cccc(Cl)n1 [Example 61, 1-(2-((1R,3S,4S)-3-((6-chloropyridin-2-yl)carbamoyl)-2-azabicyclo[2.2.1]heptan-2-yl)-2-oxoethyl)-5-methyl-1H-indazole-3-carboxamide]",0.1 to 1
18,"NC(=O)c1cc(Cl)c(F)c(CNC(=O)[C@@H]2[C@H]3CC[C@H](C3)N2C(=O)Cn2nc(C(N)=O)c3ccccc32)c1 [Example 112, 1-(2-((1R,3S,4S)-3-((5-carbamoyl-3-chloro-2-fluorobenzyl)carbamoyl)-2-azabicyclo[2.2.1]heptan-2-yl)-2-oxoethyl)-1H-indazole-3-carboxamide]",1 to 10
19,"O=C(O)c1nn(CC(=O)N2[C@@H]3CC[C@@H](C3)[C@H]2C(=O)Nc2cccc(Cl)n2)c2ccccc12 [Example 84, 1-(2-((1R,3S,4S)-3-((6-chloropyridin-2-yl)carbamoyl)-2-azabicyclo[2.2.1]heptan-2-yl)-2-oxoethyl)-1H-indazole-3-carboxylic acid]",> 10
20,"NC(=O)c1nn(CC(=O)N2C3CCC(C3)[C@H]2C(=O)Nc2cccc(C(F)(F)F)n2)c2ccccc12 (stereo partly drawn) [Example 13, 1-(2-oxo-2-((3S)-3-((6-(trifluoromethyl)pyridin-2-yl)carbamoyl)-2-azabicyclo[2.2.1]heptan-2-yl)ethyl)-1H-indazole-3-carboxamide]",1 to 10
21,"NC(=O)c1nn(CC(=O)N2[C@@H]3CC[C@@H](C3)[C@H]2C(=O)Nc2cccc(C3CC3)n2)c2cnccc12 [Example 4, 1-(2-((1R,3S,4S)-3-((6-cyclopropylpyridin-2-yl)carbamoyl)-2-azabicyclo[2.2.1]heptan-2-yl)-2-oxoethyl)-1H-pyrazolo[3,4-c]pyridine-3-carboxamide]",1 to 10
22,"COc1cccc(NC(=O)[C@@H]2[C@H]3CC[C@H](C3)N2C(=O)Cn2nc(C(N)=O)c3ccccc32)n1 [Example 50, 1-(2-((1R,3S,4S)-3-((6-methoxypyridin-2-yl)carbamoyl)-2-azabicyclo[2.2.1]heptan-2-yl)-2-oxoethyl)-1H-indazole-3-carboxamide]",1 to 10
23,"NC(=O)c1nn(CC(=O)N2[C@H](CO)C[C@H]2C(=O)NCc2cccc(Cl)c2F)c2ccccc12 [Example 197, 1-(2-(trans-2-((3-chloro-2-fluorobenzyl)carbamoyl)-4-(hydroxymethyl)azetidin-1-yl)-2-oxoethyl)-1H-indazole-3-carboxamide]",1 to 10
24,"NC(=O)c1nn(CC(=O)N2[C@@H]3CC[C@@H](C3)[C@H]2C(=O)NCc2cc(C(=O)O)cc(Cl)c2F)c2ccccc12 [Example 111, 3-(((1R,3S,4S)-2-(2-(3-carbamoyl-1H-indazol-1-yl)acetyl)-2-azabicyclo[2.2.1]heptane-3-carboxamido)methyl)-5-chloro-4-fluorobenzoic acid]",0.1 to 1
25,"NC(=O)c1nn(CC(=O)N2[C@@H]3CC[C@@H](C3)[C@H]2C(=O)Nc2cccc(C3CC3)n2)c2ccccc12 [Example 3, 1-(2-((1R,3S,4S)-3-((6-cyclopropylpyridin-2-yl)carbamoyl)-2-azabicyclo[2.2.1]heptan-2-yl)-2-oxoethyl)-1H-indazole-3-carboxamide]",1 to 10
26,"NC(=O)c1nn(CC(=O)N2[C@H](C(=O)NCc3cccc(Cl)c3F)C[C@@H]3CCC[C@@H]32)c2ccc(F)cc12 [Example 166, 1-(2-((2S,3aS,6aS)-2-((3-chloro-2-fluorobenzyl)carbamoyl)hexahydrocyclopenta[b]pyrrol-1(2H)-yl)-2-oxoethyl)-5-fluoro-1H-indazole-3-carboxamide]",0.1 to 1
27,"NC(=O)c1nn(CC(=O)N2[C@H](C(N)=O)C[C@H]2C(=O)NCc2cccc(Cl)c2F)c2ccccc12 (relative stereo) [Example 196, trans-1-(2-(3-carbamoyl-1H-indazol-1-yl)acetyl)-N2-(3-chloro-2-fluorobenzyl)azetidine-2,4-dicarboxamide]",1 to 10
